Laboratory results reported in ChEMBL document CHEMBL1149623, “Identification of antibacterial and antiviral activities of novel fused 1,2,4-triazine esters” (2007).

Assays:
Assay type in all cases: functional
[1] = tested on: Streptococcus pyogenes; experiment: Antibacterial activity against Streptococcus pyogenes at 100 mg/mL after 24 hrs by disc diffusion method
[2] = tested on: Escherichia coli; experiment: Antibacterial activity against Escherichia coli ATCC 25922 at 100 mg/mL after 24 hrs by disc diffusion method
[3] = tested on: Staphylococcus epidermidis; experiment: Antibacterial activity against Staphylococcus epidermidis at 100 mg/mL after 24 hrs by disc diffusion method
[4] = tested on: Staphylococcus aureus; experiment: Antibacterial activity against Staphylococcus aureus ATCC 25923 at 100 mg/mL after 24 hrs by disc diffusion method
[5] = tested on: Staphylococcus aureus; experiment: Antibacterial activity against Staphylococcus aureus ATCC 25923 at 200 mg/mL after 24 hrs by disc diffusion method
[6] = tested on: Streptococcus pyogenes; experiment: Antibacterial activity against Streptococcus pyogenes at 200 mg/mL after 24 hrs by disc diffusion method
[7] = tested on: Staphylococcus epidermidis; experiment: Antibacterial activity against Staphylococcus epidermidis at 200 mg/mL after 24 hrs by disc diffusion method
[8] = tested on: Escherichia coli; experiment: Antibacterial activity against Escherichia coli ATCC 25922 at 200 mg/mL after 24 hrs by disc diffusion method

COC(=O)CC1NN=C2N(CCN2c2ccc(Cl)cc2)C1=O (centres undefined)
Inhibition [1]: 16 mm
Inhibition [2]: <9 mm
Inhibition [3]: 16 mm
Inhibition [4]: 10 mm

COC(=O)CC1NN=C2N(CCN2c2ccccc2)C1=O (centres undefined)
Inhibition [1]: >20 mm
Inhibition [2]: <9 mm
Inhibition [3]: 16 mm
Inhibition [4]: 10 mm

CCOC(=O)CC1NN=C2N(CCN2c2ccc(OC)cc2)C1=O (centres undefined)
Inhibition [1]: >20 mm
Inhibition [2]: 16 mm
Inhibition [3]: <9 mm
Inhibition [4]: <9 mm

CCOC(=O)CC1NN=C2N(CCN2c2cccc(Cl)c2)C1=O (centres undefined)
Inhibition [1]: >20 mm
Inhibition [2]: >20 mm
Inhibition [3]: <9 mm
Inhibition [4]: 10 mm

CC1(C)S[C@@H]2[C@H](NC(=O)[C@H](N)c3ccccc3)C(=O)N2[C@H]1C(=O)O [AMPICILLIN]
Inhibition [5]: 16 mm
Inhibition [6]: 16 mm
Inhibition [7]: 10 mm
Inhibition [8]: 16 mm

COC(=O)CC1NN=C2N(CCN2c2ccc(OC)cc2)C1=O (centres undefined)
Inhibition [1]: >20 mm
Inhibition [2]: >20 mm
Inhibition [3]: 16 mm
Inhibition [4]: 10 mm
